Where only a bound is given, the exact number is not on record here.

The results in this text go back to patent US10213415B2, “Compounds as opioid receptor modulators” (JANSSEN PHARMACEUTICA NV, priority 2004, dated 2019).

Test [1] deals with T1, human delta subtype 2 opioid receptor (Homo sapiens, UniProt P41143).
T1 construct: purchased Perkin Elmer RBHODM400UA; host or cells: Chinese Hamster Ovary cells (recombinant expression)
In words: Human Delta Opioid Receptor Binding Assay (CHO membranes, 3H-Naltrindole). Conditions: read-out: hKi δ. As to the method:
This assay is designed to test the ability of a compound to interfere with the binding of tritiated Naltrindole to the human delta subtype 2 opioid receptor. Membranes from Chinese Hamster Ovary cells expressing the human delta subtype 2 opioid receptor (Perkin Elmer #RBHODM400UA) are homogenized in assay buffer (50 mM Tris, pH 7.5 with 5 mM MgCl2) using a glass tissue grinder, Teflon pestle and a Steadfast Stirrer (Fisher Scientific). The concentration of membranes is adjusted to 100 μg/mL in assay buffer and 100 μL is dispensed into each well of the assay plate, a 96 well round bottom polypropylene plate. Compounds to be tested are solubilized in DMSO (Pierce), 10 mM, then diluted in assay buffer to 6× the desired final concentration. The ligand, ^3H-Naltrindole (Perkin Elmer #NET-1065) is also diluted in assay buffer to 6 nM. In a second 96 well round bottom polypropylene plate, known as the premix plate, 60 μL of the 6× compound is combined with 60 μL of 6 nM ^3H-Naltrindole. From this premix plate 50 μL is transferred to the assay plate containing the membranes, in duplicate. The assay plate is incubated for 30 min at room temperature. A GF/C 96 well filter plate (Perkin Elmer #6005174) is pretreated with 0.3% polyethylenimine for 30 min. The contents of the assay plate are filtered through the filter plate using a Packard Filtermate Harvester, and washed 3 times with 0.9% saline that is 4° C. The filter plate is dried, the underside sealed, and 30 μL Microscint20 (Packard #6013621) added to each well. A Topcount-NXT Microplate Scintillation Counter (Packard) is used to measure emitted energies in the range of 2.9 to 35 KeV. Results are compared to maximum binding, wells receiving no inhibitors. Nonspecific binding is determined in the presence of 1 μM unlabelled Naltrindole (Sigma #N115).

In test [2] the target is T2, human mu opioid receptor (Homo sapiens, UniProt P35372).
T2 construct: purchased Perkin Elmer RBHOMM400UA; host or cells: Chinese Hamster Ovary cells (recombinant expression)
In words: Human Mu Opioid Receptor Binding Assay (CHO membranes, 3H-Damgo). Particulars: read-out: hKi μ. As for the experimental part: Membranes from Chinese Hamster Ovary cells expressing the human […] opioid receptor (Perkin Elmer #RBHOMM400UA) are homogenized in assay buffer (50 mM Tris, pH 7.5 with 5 mM MgCl2) using a glass tissue grinder, Teflon pestle and a Steadfast Stirrer (Fisher Scientific). The concentration of membranes is adjusted to 300 μg/mL in assay buffer and 100 μL is dispensed into each well of the assay plate, a 96 well round bottom polypropylene plate. Compounds to be tested are solubilized in DMSO (Pierce), 10 mM, then diluted in assay buffer to 6× the desired final concentration. The ligand, ^3H-Damgo (Perkin Elmer #NET-902) is also diluted in assay buffer to 3.6 nM. In a second 96 well round bottom polypropylene plate, known as the premix plate, 60 μL of the 6× compound is combined with 60 μL of 3.6 nM ^3H-Damgo. From this premix plate 50 μL is transferred to the assay plate containing the membranes, in duplicate. The assay plate is incubated for 2 h at room temperature. A GF/C 96 well filter plate (Perkin Elmer #6005174) is pretreated with 0.3% polyethylenimine for 30 min. The contents of the assay plate are filtered through the filter plate using a Packard Filtermate Harvester, and washed 3 times with 0.9% saline that is 4° C. The filter plate is dried, the underside sealed, and 30 μL Microscint20 (Packard #6013621) added to each well. A Topcount-NXT Microplate Scintillation Counter (Packard) is used to measure emitted energies in the range of 2.9 to 35 KeV. […] Nonspecific binding is determined in the presence of 1 μM unlabelled Damgo (Tocris #1171).

Test [3] deals with T3, mu opioid receptor (CHO-hMOR cell membranes) (Homo sapiens, UniProt P35372).
T3 construct: purchased Receptor Biology, Inc. (Baltimore, Md.); host or cells: CHO cells (recombinant expression)
In words: Mu Opioid Receptor Functional Assay: [35S]GTPγS Binding in CHO-hMOR Cell Membranes, Versions 1 and 2. The test is classed as biochemical. As to the method: CHO-hMOR cell membranes were purchased from Receptor Biology, Inc. (Baltimore, Md.). About 10 mg/ml of membrane protein was suspended in 10 mM TRIS-HCl pH 7.2, 2 mM EDTA, 10% sucrose, and the suspension kept on ice. One ml of membranes was added to 15 ml cold binding assay buffer containing 50 mM HEPES, pH 7.6, 5 mM MgCl2, 100 mM NaCl, 1 mM DTT and 1 mM EDTA. The membrane suspension was homogenized with a Polytron and centrifuged at 3,000 rpm for 10 min. The supernatant was then centrifuged at 18,000 rpm for 20 min. The pellet was resuspended in 10 ml assay buffer with a Polytron.
The membranes were preincubated with wheat germ agglutinin coated SPA beads (Amersham) at 25° C. for 45 min in the assay buffer. The SPA bead (5 mg/ml) coupled membranes (10 μg/ml) were then incubated with 0.5 nM [^35S]GTPγS in the assay buffer. […] A range of concentrations of receptor agonists was used to stimulate [^35S]GTPγS binding. Both basal and non-specific binding was tested in the absence of agonist; non-specific binding determination included 10 μM unlabeled GTPγS.
Compounds were tested for function as antagonists by evaluating their potential to inhibit agonist-stimulated GTPγS binding. Radioactivity was quantified on a Packard TopCount. The following parameters were calculated:
[formula] % Inhibition=(% stimulation by 1 μM SNC80−% stimulation by 1 μM SNC80 in presence of test compound)×100/(% Stimulation by 1 μM SNC80−100)
EC50 values were calculated using GraphPad Prism.
Background: GTPγS resists hydrolysis and so accumulates on activated G proteins.

T1 sequence (P41143 whole entry): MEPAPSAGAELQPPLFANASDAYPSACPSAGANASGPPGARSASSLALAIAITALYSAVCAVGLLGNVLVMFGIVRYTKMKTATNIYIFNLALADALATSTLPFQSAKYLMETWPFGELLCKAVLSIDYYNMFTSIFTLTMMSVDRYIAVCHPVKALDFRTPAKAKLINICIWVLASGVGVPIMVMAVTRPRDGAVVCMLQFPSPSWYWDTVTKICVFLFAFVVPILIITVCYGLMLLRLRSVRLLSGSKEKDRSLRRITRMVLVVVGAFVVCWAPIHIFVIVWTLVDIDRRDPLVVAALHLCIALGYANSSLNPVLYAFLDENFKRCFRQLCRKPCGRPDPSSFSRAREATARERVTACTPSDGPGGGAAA
T2 sequence (P35372 whole entry): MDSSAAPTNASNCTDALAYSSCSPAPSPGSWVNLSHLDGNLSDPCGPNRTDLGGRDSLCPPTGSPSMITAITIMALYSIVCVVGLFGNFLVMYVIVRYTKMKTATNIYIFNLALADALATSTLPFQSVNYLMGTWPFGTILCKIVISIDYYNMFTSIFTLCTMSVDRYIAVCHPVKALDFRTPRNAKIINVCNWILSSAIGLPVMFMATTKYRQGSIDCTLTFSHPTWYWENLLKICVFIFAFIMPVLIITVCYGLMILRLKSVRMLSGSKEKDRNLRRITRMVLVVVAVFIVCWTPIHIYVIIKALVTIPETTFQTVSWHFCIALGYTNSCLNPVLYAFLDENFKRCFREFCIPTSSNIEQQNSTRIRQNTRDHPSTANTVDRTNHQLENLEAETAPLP
T3 sequence (P35372 whole entry): as above

`Cc1cc(O)cc(C)c1C[C@H](N)C(=O)N(Cc1ccccc1)[C@@H](Cc1ccccc1)c1nc(-c2ccccc2)c[nH]1` [Cpd 105]: the Ki in test [1] was 742 nM; in test [2], 410 nM. The like results for `CC(C)[C@@H](c1nc(-c2ccccc2)c[nH]1)N(C(=O)[C@@H](N)Cc1cccc(C#N)c1)C(C)C` [Cpd 160] were, in that order, above 10000 nM and above 1000 nM. For the compound `Cc1cc(C(N)=O)cc(C)c1C[C@H](N)C(=O)N(Cc1ccccc1)[C@@H](C)c1nc(-c2cccc(F)c2)c[nH]1` [Cpd 59], the Ki in test [1] turned out to be 120 nM; in test [2], 5.1 nM.

As for `Cc1cc(O)cc(C)c1C[C@H](N)C(=O)N(C(C)C)[C@@H](Cc1cccc(C(N)=O)c1)c1nc(-c2ccccc2)c[nH]1` [Cpd 121], the Ki in test [1] was 182 nM; in test [2], 25.3 nM.

With `Cc1cc(O)cc(C)c1C[C@H](N)C(=O)N(Cc1nc(-c2cccc(O)c2)c(C)[nH]1)C(C)C` [Cpd 68], the Ki in test [1] worked out at 59 nM; in test [2], 0.6 nM. On to `CC(C)N(C(=O)[C@@H](N)Cc1ccc(O)cc1)[C@@H](Cc1ccccc1)c1nc(-c2ccccc2)c[nH]1` [Cpd 158], for which the Ki is above 10000 nM in test [1] and 0.23 nM in test [2]. The like results for `Cc1cc(O)cc(C)c1C[C@H](N)C(=O)N(Cc1ccc(N(C)C)cc1)[C@@H](C)c1nc(-c2ccccc2)cn1C` [Cpd 77] were, in that order, 13.5 nM and 1.8 nM. Regarding `Cc1cc(O)cc(C)c1C[C@H](N)C(=O)N(Cc1ccco1)[C@@H](C)c1nc(-c2ccccc2)c[nH]1` [Cpd 54], the figures for the Ki in test [1] and in test [2] were 172 nM and 1.1 nM, respectively. For the compound `Cc1cc(O)cc(C)c1C[C@H](N)C(=O)N(Cc1nc(-c2cccc(-c3ccccc3)c2)c(C)[nH]1)C(C)C` [Cpd 134], the Ki in test [1] came to 463 nM; in test [2] it was 121 nM. For `Cc1cc(O)cc(C)c1C[C@H](N)C(=O)N(Cc1nc(-c2cccc(Cl)c2)c(C)[nH]1)C(C)C` [Cpd 70], the results for the Ki in test [1] and in test [2] were 85 nM and 2.6 nM, respectively. As for `Cc1cc(O)cc(C)c1C[C@H](N)C(=O)N(Cc1ccc(O)cc1)[C@@H](C)c1nc(-c2ccccc2)c[nH]1` [Cpd 81], the figures for the Ki in test [1] and in test [2] were 15.7 nM and 1.7 nM, respectively. Take `Cc1cc(C(N)=O)cc(C)c1C[C@H](N)C(=O)N(Cc1ccccc1)[C@@H](COCc1ccccc1)c1nc(-c2ccccc2)c[nH]1` [Cpd 64]: the Ki in test [1] came out at 1110 nM; in test [2], 117 nM. Consider `Cc1cc(O)cc(C)c1C[C@H](N)C(=O)N(Cc1nc(-c2ccc(C(N)=O)cc2)c(C)[nH]1)C(C)C` [Cpd 69], for which the Ki stood at 272 nM in test [1] and 4.4 nM in test [2]. For `COc1cccc(-c2nc(CN(C(=O)[C@@H](N)Cc3c(C)cc(O)cc3C)C(C)C)[nH]c2C)c1` [Cpd 142], the figures for the Ki in test [1] and in test [2] were 454 nM and 8.2 nM, respectively. Turning to `Cc1cc(O)cc(C)c1C[C@H](N)C(=O)N(Cc1nc(-c2ccc(S(C)(=O)=O)cc2)c(C)[nH]1)C(C)C` [Cpd 62], the Ki stood at 69 nM in test [1] and 2.4 nM in test [2]. The like results for `Cc1cc(O)cc(C)c1C[C@H](N)C(=O)N(Cc1ccccc1)[C@H](c1nc(-c2ccccc2)c[nH]1)C(C)C` [Cpd 106] were, in that order, 279 nM and 150 nM. As to `Cc1cc(O)cc(C)c1CC(N)C(=O)N(Cc1ccccc1)C(C)c1nc(-c2ccc(F)cc2)c[nH]1` (stereo not shown) [Cpd 83], the figures for the Ki in test [1] and in test [2] were 48 nM and 4.67 nM, respectively. As to `Cc1cc(O)cc(C)c1C[C@H](N)C(=O)N(Cc1nc(-c2cccc(C(=O)N(C)C)c2)c(C)[nH]1)C(C)C` [Cpd 67], the figures for the Ki in test [1] and in test [2] were 438 nM and 4.5 nM, respectively.

As for `Cc1cc(O)cc(C)c1CC(N)C(=O)Oc1cc(C)c(C[C@H](N)C(=O)N(C(C)C)[C@@H](CC(C)C)c2nc(-c3ccccc3)c[nH]2)c(C)c1` (stereo partly shown) [Cpd 139], the Ki in test [1] was found to be 1260 nM; in test [2] it was 58 nM.

As for `Cc1cc(O)cc(C)c1C[C@H](N)C(=O)N(C(C)C)[C@@H](C)c1nc(-c2ccc(F)cc2)c[nH]1` [Cpd 84], the results for the Ki in test [1] and in test [2] were 9.6 nM and 1.1 nM, respectively. For the compound `Cc1cc(O)cc(C)c1C[C@H](N)C(=O)N(Cc1nc(-c2cc(F)ccc2F)c(C)[nH]1)C(C)C` [Cpd 61], the Ki in test [1] is 243 nM; in test [2] it was 3 nM. In the case of `Cc1cc(O)cc(C)c1C[C@H](N)C(=O)N[C@@H](CO)c1nc(-c2ccccc2)c[nH]1` [Cpd 119], the Ki was above 10000 nM in test [1] and 185 nM in test [2].

Consider `Cc1cc(C(N)=O)cc(C)c1C[C@H](N)C(=O)N(Cc1ccccc1)[C@@H](C)c1nc(-c2ccc(C(F)(F)F)cc2)c(C)[nH]1` [Cpd 74], for which the Ki in test [1] stood at 63 nM; in test [2], 9.8 nM. For `Cc1cc(O)cc(C)c1C[C@H](N)C(=O)N(C(C)C)[C@@H](Cc1ccccc1)c1nc(-c2ccccc2)c[nH]1` [Cpd 159], the Ki came to 400 nM in test [1] and 8.6 nM in test [2]. On to `Cc1cc(O)cc(C)c1C[C@H](N)C(=O)N(Cc1nc(-c2cc(Cl)cc(Cl)c2)c(C)[nH]1)C(C)C` [Cpd 141], for which the Ki in test [1] came out at 252 nM; in test [2], 52 nM. Regarding `Cc1cc(C(N)=O)cc(C)c1C[C@H](N)C(=O)N(C1CCCCC1)[C@@H](C)c1nc(-c2ccccc2)c[nH]1` [Cpd 127], the results for the Ki in test [1] and in test [2] were 710 nM and 47 nM, respectively.

In the case of `COc1ccccc1-c1nc(CN(C(=O)[C@@H](N)Cc2c(C)cc(O)cc2C)C(C)C)[nH]c1C` [Cpd 135], the Ki was determined as 1040 nM in test [1] and 7 nM in test [2].

With `Cc1cc(O)cc(C)c1C[C@H](N)C(=O)N(Cc1nc(-c2cccc(F)c2)c(C)[nH]1)C(C)C` [Cpd 116], the Ki in test [1] was 30.3 nM; in test [2], 0.54 nM. As for `COc1ccc(CN(C(=O)[C@@H](N)Cc2c(C)cc(C(N)=O)cc2C)[C@@H](C)c2nc(-c3ccccc3)c[nH]2)cc1-c1nnn(C(C)(C)C)n1` [Cpd 309], the “MOR GTP binding assay_v2 (% I)” value in test [3] (version 2, % inhibition of agonist-stimulated GTPγS binding) was determined as 47.00%. Besides, in test [3] (version 2, read-out: MOR GTP binding assay v2 EC50), the concentration for a half-maximal effect (EC50) (in general, the concentration giving half of the maximal effect) came to 23 nM. Turning to `Cc1[nH]c(CN(C(=O)[C@@H](N)Cc2ccc(O)cc2)C(C)C)nc1-c1cccnc1` [Cpd 153], the Ki in test [1] was above 10000 nM. As to `Cc1[nH]c(CN(C(=O)[C@@H](N)Cc2ccc(O)cc2)C(C)C)nc1-c1ccsc1` [Cpd 152], the Ki in test [1] was above 10000 nM. Consider `Cc1cc(O)cc(C)c1C[C@H](N)C(=O)N(Cc1nc(-c2ccccc2-c2ccccc2)c(C)[nH]1)C(C)C` [Cpd 145], for which the Ki in test [1] worked out at 267 nM.
